Data taken from EP1096933B1, “USE OF AN INHIBITOR OF CYTOCHROME P450 OPTIONALLY COMBINED WITH AN ANTIFUNGAL AGENT FOR TREATING MYCOSES” (priority 1998, dated 2000).
Like-named read-outs stand apart in the source and are kept apart here.

System: Trichophyton violaceum
Test: growth of strains streaked on Sabouraud agar containing the products
Format: cell-based
Conditions: Tric.Violaceum; for activity at 10 µg/mL: read-out: % DE CROISSANCE; for inhibition at 2 µg/mL / inhibition at 10 µg/mL / inhibition at 20 µg/mL / inhibition at 50 µg/mL: read-out: inhibition de la croissance
Experimental: Ces molécules ont été incorporées dans un milieu gélosé dit de Sabouraud (peptone 10g/l, glucose 10 g/l, gomme agar 15 g/l).
Des souches de diverses espèces de champignons ont été ensemencées par stries par la méthode de Stires.
Le pourcentage de croissance a été mesuré au cours du temps, pour des périodes allant jusqu'à 21 jours, pour certaines des souches testées.
Les quantités de pipéronyl butoxyde, et de cyclopyroxolamine utilisées sont identiques et sont de 10 ou 20 µg/ml dans le cas de l'association entre ces deux composés.
Dans le cas de l'association entre le pipéronyl butoxyde et l'éconazole, elles sont respectivement de 10 ou 20 µg/ml de pipéronyl butoxyde et de 1 µg/ml d'éconazole.
Des souches appartenant aux espèces suivantes ont été testées: Microsporum canis, Trichophyton rubrum, Trichophyton interdigitale, Trichophyton mentagrophytes, Microsporum persicolor, Epidermophyton floccosum, Trichophyton violaceum et Trichophyton soudanense.
L'activité du pipéronyl butoxyde seul a été testée à diverses concentrations, comme indiqué dans le tableau 1 sur le milieu de Sabouraud, dépourvu de tout autre fongicide.

CCCCOCCOCCOCc1cc2c(cc1CCC)OCO2 [Piperonyl., pipéronyl butoxyde]
activity at 10 µg/mL (0 h, J0, 10µg/ml each product): 0%
activity at 10 µg/mL (96 h, J4, 10µg/ml each product): 0%
activity at 10 µg/mL (144 h, J6, 10µg/ml each product): 15%
activity at 10 µg/mL (240 h, J10, 10µg/ml each product): 35%
activity at 10 µg/mL (336 h, J14, 10µg/ml each product): 35%
inhibition at 2 µg/mL (J+4, 2 µg/ml): 25%
inhibition at 10 µg/mL (J+4, 10 µg/ml): 0%
inhibition at 20 µg/mL (J+4, 20 µg/ml): 0%
inhibition at 50 µg/mL (J+4, 50 µg/ml): 0%
inhibition at 2 µg/mL (J+10, 2 µg/ml): 90%
inhibition at 10 µg/mL (J+10, 10 µg/ml): 35%
inhibition at 20 µg/mL (J+10, 20 µg/ml): 15%
inhibition at 50 µg/mL (J+10, 50 µg/ml): 0%
inhibition at 2 µg/mL (J+14, 2 µg/ml): 100%
inhibition at 10 µg/mL (J+14, 10 µg/ml): 35%
inhibition at 20 µg/mL (J+14, 20 µg/ml): 25%
inhibition at 50 µg/mL (J+14, 50 µg/ml): 0%
